Laboratory results published in patent US12427157B2, “Methods for treatment of diseases involving acidic or hypoxic diseased tissues” (Cybrexa 1, Inc., priority 2018, dated 2025).
Like-named read-outs stand apart in the source and are kept apart here. Residues, ends and D or L forms follow the SMILES beside them. *: point of attachment. X7 = C[C@@H](COC(=O)NCN1c2cc(F)cc3c(=O)[nH]nc(c23)[C@H](c2ncnn2C)[C@H]1c1ccc(F)cc1)S*; X4 = C[C@H](COC(=O)NCN1c2cc(F)cc3c(=O)[nH]nc(c23)[C@H](c2ncnn2C)[C@H]1c1ccc(F)cc1)S*; X1 = Cn1ncnc1[C@H]1c2n[nH]c(=O)c3cc(F)cc(c23)N(CNC(=O)OCCS*)[C@@H]1c1ccc(F)cc1; X14 = C[C@@H](COC(=O)N1CCC[C@]1(C)c1nc2c(C(N)=O)cccc2[nH]1)S*

Experiments:
DLD-1 BRCA2−/− cells = assay: Growth delay assay; assay type: cell-based, Human; conditions: pH 7.4, BRCA (−/−) DLD-1, 96 h
Protocol: Cells were plated in 96 well black walled-clear bottom plates (Griener), DLD-1 WT cells at 2500 cells per well, DLD-1 BRCA2−/− at 5000 cells per well, in growth media containing 10% FBS. Cells were allowed to adhere at room temperature for 60 minutes before returning to a 37 C, 5% CO2 incubator. After 24 hours, media was removed and replaced with fresh growth media containing various drug concentrations. Each drug concentration was added in triplicate. Non-drug treated controls contained growth media only. Cells were returned to the incubator. Ninety-six hours after addition of drug, cells were fixed with 4% paraformaldehyde for 20 minutes and stained with Hoechst at 1 ug/mL. The plates were imaged on a Cytation 5 auto imager (BioTek) and cells were counted using CellProfiler (http://cellprofiler.org). The percent cell growth delay was calculated and data plotted using GraphPad Prism.

PARP = PARP (Homo sapiens, UniProt P09874); assay: Enzymatic Assay 2: HT Universal Chemiluminescent PARP Assay of cleaved compounds;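 also: PARP reaction with activated DNA run 1 h at room temperature, product detected via streptavidin-HRP and luminescence endpoint reading on a plate reader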
Sequence of PARP (P09874 whole entry): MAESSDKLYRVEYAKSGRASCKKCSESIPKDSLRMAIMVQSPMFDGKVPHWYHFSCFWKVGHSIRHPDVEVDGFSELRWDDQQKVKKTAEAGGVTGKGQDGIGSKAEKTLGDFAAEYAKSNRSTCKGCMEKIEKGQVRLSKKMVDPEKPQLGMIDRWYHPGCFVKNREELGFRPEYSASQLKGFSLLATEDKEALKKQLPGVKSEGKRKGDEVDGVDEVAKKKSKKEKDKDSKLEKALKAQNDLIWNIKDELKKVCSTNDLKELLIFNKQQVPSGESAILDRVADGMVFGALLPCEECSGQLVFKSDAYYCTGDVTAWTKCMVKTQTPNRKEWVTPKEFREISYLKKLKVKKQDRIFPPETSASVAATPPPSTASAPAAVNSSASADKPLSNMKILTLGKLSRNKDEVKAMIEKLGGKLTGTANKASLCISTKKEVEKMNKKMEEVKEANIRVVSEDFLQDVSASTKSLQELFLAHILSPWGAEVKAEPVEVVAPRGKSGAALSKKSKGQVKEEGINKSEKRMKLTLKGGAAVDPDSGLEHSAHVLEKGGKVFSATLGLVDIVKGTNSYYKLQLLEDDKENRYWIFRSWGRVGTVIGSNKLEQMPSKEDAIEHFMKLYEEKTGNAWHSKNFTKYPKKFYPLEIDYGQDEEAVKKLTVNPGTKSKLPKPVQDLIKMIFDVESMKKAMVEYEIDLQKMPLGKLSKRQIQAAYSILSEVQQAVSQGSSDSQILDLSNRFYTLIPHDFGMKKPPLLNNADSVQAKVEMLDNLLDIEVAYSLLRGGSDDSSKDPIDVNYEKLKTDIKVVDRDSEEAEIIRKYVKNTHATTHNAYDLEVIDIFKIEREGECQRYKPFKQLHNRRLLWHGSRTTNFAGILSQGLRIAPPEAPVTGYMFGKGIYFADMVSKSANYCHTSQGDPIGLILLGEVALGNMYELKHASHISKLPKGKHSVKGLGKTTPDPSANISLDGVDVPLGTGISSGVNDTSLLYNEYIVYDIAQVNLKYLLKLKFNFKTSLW
Protocol: An equal volume of 1×PARP cocktail containing activated DNA was added to each well and the reaction was incubated for one hour at room temperature. The wells were washed twice with 1×PBS+0.1% Triton X-100 and twice with PBS. 50 ul/well of diluted streptavidin-HRP was added and the wells were incubated for one hour at room temperature. The wells were washed twice with 1×PBS+0.1% Triton X-100 and washed twice with PBS. The liquid was 5 removed, 100 ul/well 1:1 PeroxyGlow A/PeroxyGlow B was added and the chemiluminescent readings were measured on a BioTek Cytation 5 plate reader using the luminescence fiber endpoint.

[1] = read-out: IC50 Enzymatic Assay 2, Examples cleaved per Example A (crude cleavage solution), R^8H starting materials as such

IC50 (PARP) [nM] | Structure (SMILES) | IC50 (DLD-1 BRCA2−/− cells) [nM] | IC50 (PARP; [1]) [nM]
 | CC[C@H](C)[C@H](NC(=O)[C@@H]1CCCN1C(=O)[C@H](CC(N)=O)NC(=O)[C@H](CCC(N)=O)NC(=O)[C@H](CCC(=O)O)NC(=O)[C@H](C)N)C(=O)N[C@@H](Cc1ccc(O)cc1)C(=O)N[C@@H](Cc1c[nH]c2ccccc12)C(=O)N[C@@H](C)C(=O)N[C@@H](CCCNC(=N)N)C(=O)N[C@@H](Cc1ccc(O)cc1)C(=O)N[C@@H](C)C(=O)N[C@@H](CC(=O)O)C(=O)N[C@@H](Cc1c[nH]c2ccccc12)C(=O)N[C@@H](CC(C)C)C(=O)N[C@@H](Cc1ccccc1)C(=O)N[C@H](C(=O)N[C@H](C(=O)N1CCC[C@H]1C(=O)N[C@@H](CC(C)C)C(=O)N[C@@H](CC(C)C)C(=O)N[C@@H](CC(C)C)C(=O)N[C@@H](CC(C)C)C(=O)N[C@@H](CC(=O)O)C(=O)N[C@@H](CC(C)C)C(=O)N[C@@H](C)C(=O)N[C@@H](CC(C)C)C(=O)N[C@@H](CC(C)C)C(=O)N[C@H](C(=O)N[C@@H](CC(=O)O)C(=O)N[C@@H](C)C(=O)N[C@@H](CC(=O)O)C(=O)N[C@@H](CCC(=O)O)C(=O)N[C@@H](CSSCCOC(=O)NCN1c2cc(F)cc3c(=O)[nH]nc(c23)[C@H](c2ncnn2C)[C@H]1c1ccc(F)cc1)C(=O)NCC(=O)O)C(C)C)[C@@H](C)O)[C@@H](C)O [Example 12] (H-AEQNPIYWARYADWLFTTPLLLLDLALLVDADEC(X1)G-OH; N-terminus and C-terminus assumed) | 162 | 0.47
 | CC[C@H](C)[C@H](NC(=O)[C@@H]1CCCN1C(=O)[C@H](CC(N)=O)NC(=O)[C@H](CCC(N)=O)NC(=O)[C@H](CCC(=O)O)NC(=O)[C@H](C)N)C(=O)N[C@@H](Cc1ccc(O)cc1)C(=O)N[C@@H](Cc1c[nH]c2ccccc12)C(=O)N[C@@H](C)C(=O)N[C@@H](CCCNC(=N)N)C(=O)N[C@@H](Cc1ccc(O)cc1)C(=O)N[C@@H](C)C(=O)N[C@@H](CC(=O)O)C(=O)N[C@@H](Cc1c[nH]c2ccccc12)C(=O)N[C@@H](CC(C)C)C(=O)N[C@@H](Cc1ccccc1)C(=O)N[C@H](C(=O)N[C@H](C(=O)N1CCC[C@H]1C(=O)N[C@@H](CC(C)C)C(=O)N[C@@H](CC(C)C)C(=O)N[C@@H](CC(C)C)C(=O)N[C@@H](CC(C)C)C(=O)N[C@@H](CC(=O)O)C(=O)N[C@@H](CC(C)C)C(=O)N[C@@H](C)C(=O)N[C@@H](CC(C)C)C(=O)N[C@@H](CC(C)C)C(=O)N[C@H](C(=O)N[C@@H](CC(=O)O)C(=O)N[C@@H](C)C(=O)N[C@@H](CC(=O)O)C(=O)N[C@@H](CCC(=O)O)C(=O)N[C@@H](CSS[C@@H](C)COC(=O)NCN1c2cc(F)cc3c(=O)[nH]nc(c23)[C@H](c2ncnn2C)[C@H]1c1ccc(F)cc1)C(=O)NCC(=O)O)C(C)C)[C@@H](C)O)[C@@H](C)O [Example 13] (H-AEQNPIYWARYADWLFTTPLLLLDLALLVDADEC(X7)G-OH; N-terminus and C-terminus assumed) | 51 | 1
 | CC[C@H](C)[C@H](NC(=O)[C@@H]1CCCN1C(=O)[C@H](CC(N)=O)NC(=O)[C@H](CCC(N)=O)NC(=O)[C@H](CCC(=O)O)NC(=O)[C@H](C)N)C(=O)N[C@@H](Cc1ccc(O)cc1)C(=O)N[C@@H](Cc1c[nH]c2ccccc12)C(=O)N[C@@H](C)C(=O)N[C@@H](CCCNC(=N)N)C(=O)N[C@@H](Cc1ccc(O)cc1)C(=O)N[C@@H](C)C(=O)N[C@@H](CC(=O)O)C(=O)N[C@@H](Cc1c[nH]c2ccccc12)C(=O)N[C@@H](CC(C)C)C(=O)N[C@@H](Cc1ccccc1)C(=O)N[C@H](C(=O)N[C@H](C(=O)N1CCC[C@H]1C(=O)N[C@@H](CC(C)C)C(=O)N[C@@H](CC(C)C)C(=O)N[C@@H](CC(C)C)C(=O)N[C@@H](CC(C)C)C(=O)N[C@@H](CC(=O)O)C(=O)N[C@@H](CC(C)C)C(=O)N[C@@H](C)C(=O)N[C@@H](CC(C)C)C(=O)N[C@@H](CC(C)C)C(=O)N[C@H](C(=O)N[C@@H](CC(=O)O)C(=O)N[C@@H](C)C(=O)N[C@@H](CC(=O)O)C(=O)N[C@@H](CCC(=O)O)C(=O)N[C@@H](CSS[C@H](C)COC(=O)NCN1c2cc(F)cc3c(=O)[nH]nc(c23)[C@H](c2ncnn2C)[C@H]1c1ccc(F)cc1)C(=O)NCC(=O)O)C(C)C)[C@@H](C)O)[C@@H](C)O [Example 14] (H-AEQNPIYWARYADWLFTTPLLLLDLALLVDADEC(X4)G-OH; N-terminus and C-terminus assumed) | 72 | 0.5
 | CC[C@H](C)[C@H](NC(=O)[C@@H]1CCCN1C(=O)[C@H](CC(N)=O)NC(=O)[C@H](CCC(N)=O)NC(=O)[C@H](CCC(=O)O)NC(=O)[C@H](C)N)C(=O)N[C@@H](Cc1ccc(O)cc1)C(=O)N[C@@H](Cc1c[nH]c2ccccc12)C(=O)N[C@@H](C)C(=O)N[C@@H](CCCNC(=N)N)C(=O)N[C@@H](Cc1ccc(O)cc1)C(=O)N[C@@H](C)C(=O)N[C@@H](CC(=O)O)C(=O)N[C@@H](Cc1c[nH]c2ccccc12)C(=O)N[C@@H](CC(C)C)C(=O)N[C@@H](Cc1ccccc1)C(=O)N[C@H](C(=O)N[C@H](C(=O)N1CCC[C@H]1C(=O)N[C@@H](CC(C)C)C(=O)N[C@@H](CC(C)C)C(=O)N[C@@H](CC(C)C)C(=O)N[C@@H](CC(C)C)C(=O)N[C@@H](CC(=O)O)C(=O)N[C@@H](CC(C)C)C(=O)N[C@@H](C)C(=O)N[C@@H](CC(C)C)C(=O)N[C@@H](CC(C)C)C(=O)N[C@H](C(=O)N[C@@H](CC(=O)O)C(=O)N[C@@H](C)C(=O)N[C@@H](CC(=O)O)C(=O)N[C@@H](CCC(=O)O)C(=O)N[C@@H](CSS[C@@H](C)COC(=O)N1CCC[C@]1(C)c1nc2c(C(N)=O)cccc2[nH]1)C(=O)NCC(=O)O)C(C)C)[C@@H](C)O)[C@@H](C)O [Example 55] (H-AEQNPIYWARYADWLFTTPLLLLDLALLVDADEC(X14)G-OH; N-terminus and C-terminus assumed) |  | 0.7
 | CC(C)C[C@H](NC(=O)[C@H](Cc1ccc(O)cc1)NC(=O)[C@H](C)NC(=O)[C@H](CCCNC(=N)N)NC(=O)[C@H](Cc1c[nH]c2ccccc12)NC(=O)[C@@H]1CCCN1C(=O)[C@H](CC(N)=O)NC(=O)[C@H](CCC(N)=O)NC(=O)[C@H](CC(=O)O)NC(=O)[C@H](CC(=O)O)NC(=O)[C@H](C)N)C(=O)N[C@@H](CC(=O)O)C(=O)N[C@@H](CC(C)C)C(=O)N[C@@H](CC(C)C)C(=O)N[C@@H](Cc1ccccc1)C(=O)N1CCC[C@H]1C(=O)N[C@H](C(=O)N[C@@H](CC(=O)O)C(=O)N[C@H](C(=O)N[C@@H](CC(C)C)C(=O)N[C@@H](CC(C)C)C(=O)N[C@@H](CC(C)C)C(=O)N[C@@H](CC(=O)O)C(=O)N[C@@H](CC(C)C)C(=O)N[C@@H](CC(C)C)C(=O)N[C@@H](Cc1c[nH]c2ccccc12)C(=O)N[C@@H](CC(=O)O)C(=O)N[C@@H](C)C(=O)N[C@@H](CC(=O)O)C(=O)N[C@@H](CCC(=O)O)C(=O)N[C@@H](CSSc1ccc(COC(=O)N2CCC[C@]2(C)c2nc3c(C(N)=O)cccc3[nH]2)cc1)C(=O)NCC(=O)O)[C@@H](C)O)[C@@H](C)O [Example 56] |  | 0.8
1 | C[C@]12CCCN1C1=NNC(=O)c3cc(F)cc4[nH]c(c1c34)C2 [R^8H-17, reference compound] |  | 
